Test in all cases: NCI-60 cell line screen, 48 h
Test [1] has as its system A549.
For test [2], the system named is KM12.
For test [3], the system named is SNB-19.
Test [4] has as its system Malme-3M.
The test system of test [5] is DU-145.
In test [6] the test system is HL-60.
Test [7] has as its system UO-31.
Test [8] deals with EKVX.
The subject of test [9] is T47D.
In test [10] the test system is SK-MEL-5.
Test [11] concerns HT-29.
Test [12] deals with K562.
Test [13] has as its system HOP-62.
In test [14] the test system is SF-295.
Test [15] relates to OVCAR-8.
In test [16] the test system is HCT-15.
Test [17] has as its system SF-268.
The subject of test [18] is MCF7.
Test [19] relates to NCI-H522.
Test [20] relates to NCI/ADR-RES.

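Interpolation was linear, between the two tested concentrations surrounding the appropriate level; five concentrations were tested over 48 hours in 96-well plates. Abbreviation: GI50, concentration required for 50% inhibition of growth.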 Activity calls are given as the source filed them. Rule as the data show it: active = GI50 up to about 1.1 µM and inactive = higher.

In the case of `Cc1ccc(S(=O)(=O)Nc2cc(O)nc3c2CCC3)cc1`, the GI50 was > 100 µM (inactive) in test [1]; > 100 µM (inactive) in [2]; > 100 µM (inactive) in [3]; > 100 µM (inactive) in test [4]; > 100 µM (inactive) in test [5]; 34 µM (inactive) in test [6]. The GI50 in test [7] is > 100 µM (inactive); in test [8], > 100 µM (inactive); in test [9], > 100 µM (inactive); in [10], 73.5 µM (inactive); in test [11] it was > 100 µM (inactive); in test [12], > 100 µM (inactive). Besides, the GI50 in [13] is > 100 µM (inactive); in test [14], > 100 µM (inactive); in test [15], > 100 µM (inactive); in [16] it was greater than 100 µM; in [17], > 100 µM (inactive); in [18] it was > 100 µM (inactive). Also, the GI50 in test [19] and in [20] was > 100 µM (inactive) each time.

Regarding `Nc1cccc2nsnc12`, the GI50 in test [1] is > 100 µM (inactive); in test [2], 20.7 µM (inactive); in [3], > 100 µM (inactive); in test [4], > 100 µM (inactive); in test [5], > 100 µM (inactive); in [6], 3.31 µM (inactive). For the same compound, the GI50 was > 40.5 µM (inactive) in [7]; > 91.8 µM (inactive) in [8]; 49.1 µM (inactive) in test [9]; 36.3 µM (inactive) in [10]; > 100 µM (inactive) in [11]; 16.7 µM (inactive) in test [12]. For the same compound, the GI50 in [13] was > 100 µM (inactive); in [14], > 88.7 µM (inactive); in test [15], > 100 µM (inactive); in test [16], greater than 76.7 µM; in test [17] it was > 86.3 µM (inactive); in test [18], > 88.3 µM (inactive). Also, the GI50 in test [19] is 9.1 µM (inactive); in test [20] it was > 100 µM (inactive).

Take `CCOC(=O)c1cccc(/N=N/c2nc[nH]c2/C=C/C(=O)OC)c1`: the GI50 in test [1] is 39.5 µM (inactive); in test [2] it was 15.8 µM (inactive); in test [3] it was 30.5 µM (inactive); in test [4], 8.71 µM (inactive); in test [5], 37.4 µM (inactive); in test [6], 3.37 µM (inactive). The GI50 was 8.15 µM (inactive) in test [7]; 26.5 µM (inactive) in test [8]; 9.95 µM (inactive) in [9]; 7.36 µM (inactive) in test [10]; 6.98 µM (inactive) in test [11]; 4.06 µM (inactive) in test [12]. Besides, the GI50 was 6.35 µM (inactive) in [13]; 12.9 µM (inactive) in test [14]; 16.5 µM (inactive) in test [15]; 5.13 µM in test [16]; 8.79 µM (inactive) in [17]; 4.18 µM (inactive) in test [18]. The values for the GI50 in test [19] and in test [20] were 9.38 µM (inactive) and 4.1 µM (inactive), respectively.

Regarding `O=C1C(/N=N/c2ccc(-c3nc4ccccc4o3)cc2)NC(=S)N1c1ccccc1` (stereo not given), the GI50 in test [1] was > 100 µM (inactive); in test [2], > 100 µM (inactive); in test [3], > 100 µM (inactive); in test [4], > 100 µM (inactive); in test [5], 37.4 µM (inactive); in [6] it was 0.13 µM (active). The GI50 in test [7] was > 100 µM (inactive); in [8], 49.3 µM (inactive); in test [9] it was 22.9 µM (inactive); in test [10] it was 49.1 µM (inactive); in test [11], > 100 µM (inactive); in test [12], 67.8 µM (inactive). The GI50 is > 100 µM (inactive) in test [13]; > 100 µM (inactive) in [14]; 60.3 µM (inactive) in [15]; 62.8 µM in test [16]; > 100 µM (inactive) in test [17]; 33.2 µM (inactive) in [18]. In addition, the GI50 in test [19] was 60.4 µM (inactive); in [20] it was 73.5 µM (inactive).

As for `CCOC(=O)c1csc(C(CSCc2ccc(OC)cc2)N2C(=O)c3ccccc3C2=O)n1` (stereo not given), the GI50 in [1] is > 100 µM (inactive); in [2], > 100 µM (inactive); in [3], > 100 µM (inactive); in test [4], > 100 µM (inactive); in test [5], > 100 µM (inactive); in test [6] it was 33.7 µM (inactive). Further, the GI50 in [7] was > 100 µM (inactive); in test [8] it was > 100 µM (inactive); in [9], 69.2 µM (inactive); in [10], > 100 µM (inactive); in [11] it was 87.7 µM (inactive); in [12], 33.9 µM (inactive). Besides, the GI50 is > 100 µM (inactive) in test [13]; > 100 µM (inactive) in [14]; > 100 µM (inactive) in test [15]; 62.7 µM in [16]; > 100 µM (inactive) in test [17]; 73.5 µM (inactive) in test [18]. For the same compound, the GI50 is 23.5 µM (inactive) in test [19] and > 100 µM (inactive) in test [20].

Consider `CCN(C(C)=O)c1cnc(/C=N/NC(N)=S)c2ccccc12`, for which the GI50 in test [1] is 4.01 µM (inactive); in test [2], 2.94 µM (inactive); in test [3], 3.49 µM (inactive); in test [4], 11.4 µM (inactive); in test [5], 2.06 µM (inactive); in [6], 1.77 µM (inactive). The GI50 was 1.81 µM (inactive) in [7]; 4.29 µM (inactive) in [8]; 5.69 µM (inactive) in [9]; 2.84 µM (inactive) in test [10]; 3.49 µM (inactive) in test [11]; 4 µM (inactive) in test [12]. The GI50 in [13] was 5.61 µM (inactive); in [14], 3.14 µM (inactive); in test [15], 2.29 µM (inactive); in test [16], 2.25 µM; in test [17], 1.58 µM (inactive); in test [18], 2.81 µM (inactive). Moreover, the GI50 is 2.95 µM (inactive) in [19] and 10.6 µM (inactive) in [20].

In the case of `N#C/C(=C/n1c(=S)[nH]c2ccccc21)C(N)=O`, the GI50 was > 100 µM (inactive) in test [1]; > 100 µM (inactive) in [2]; > 100 µM (inactive) in test [3]; > 100 µM (inactive) in test [4]; > 100 µM (inactive) in test [5]; 16.7 µM (inactive) in test [6]. Moreover, the GI50 in [7], in test [8], in [9], in test [10], in test [11] and in [12] was > 100 µM (inactive) in each case. Besides, the GI50 in [13] was > 100 µM (inactive); in test [14], > 100 µM (inactive); in test [15], > 100 µM (inactive); in test [16] it was greater than 100 µM; in [17], > 100 µM (inactive); in [18], > 100 µM (inactive). Also, the GI50 in test [19] and in test [20] was > 100 µM (inactive) throughout.

Regarding `COc1ccccc1N(CN1C(=O)CCC1C(=O)O)C(C)=O` (stereo not given), the GI50 in test [1], in [2], in test [3], in test [4], in test [5] and in test [6] was > 100 µM (inactive) throughout. For the same compound, the GI50 in [7], in test [8], in test [9], in test [10], in [11] and in [12] was > 100 µM (inactive) each time. Besides, the GI50 is > 100 µM (inactive) in test [13]; > 100 µM (inactive) in test [14]; > 100 µM (inactive) in test [15]; greater than 100 µM in [16]; 53 µM (inactive) in test [17]; > 100 µM (inactive) in [18]. In addition, the GI50 in [19] and in test [20] was > 100 µM (inactive) in each case.

On to `CCOP(=O)(OCC)/C(C#N)=C/c1c(C)[nH]c2ccccc12`, for which the GI50 in [1], in test [2], in test [3], in test [4], in test [5] and in test [6] was > 100 µM (inactive) each time. Also, the GI50 in [7] is 30.4 µM (inactive); in test [8] it was > 100 µM (inactive); in [9] it was > 100 µM (inactive); in test [10], > 100 µM (inactive); in test [11], > 100 µM (inactive); in [12], > 100 µM (inactive). Besides, the GI50 is > 100 µM (inactive) in [13]; > 100 µM (inactive) in test [14]; > 100 µM (inactive) in [15]; greater than 100 µM in test [16]; > 100 µM (inactive) in test [17]; > 100 µM (inactive) in test [18]. Also, the GI50 in test [19] and in test [20] was > 100 µM (inactive) in each case.

As to `COc1cc2ccccc2oc1=O`, the GI50 in test [1] is > 100 µM (inactive); in test [2], > 100 µM (inactive); in test [3] it was > 100 µM (inactive); in test [4], 99.1 µM (inactive); in test [5], > 100 µM (inactive); in test [6] it was 50.8 µM (inactive). Moreover, the GI50 is 39 µM (inactive) in [7]; 51.1 µM (inactive) in [8]; 1.85 µM (inactive) in [9]; > 100 µM (inactive) in [10]; > 100 µM (inactive) in test [11]; > 100 µM (inactive) in [12]. Moreover, the GI50 is 59.8 µM (inactive) in test [13]; > 100 µM (inactive) in test [14]; > 100 µM (inactive) in test [15]; greater than 100 µM in test [16]; 51.6 µM (inactive) in test [17]; 54.8 µM (inactive) in test [18]. Also, the GI50 in test [19] is 32.6 µM (inactive); in test [20], 97.5 µM (inactive).

(Values after ChEMBL document CHEMBL1201862, “PubChem BioAssay data set” (2004).)
